# Laboratory results: PubChem BioAssay AID1963970 (Molecular Pharmacology Branch, DTP, NCI, 2024)
# pIC50: −log10 of the molar value.
# Test system: 931267-113-T-J1-PDC multicell spheroid viability
# Assay: Anticancer human tumor 931267-113-T-J1-PDC patient-derived colon adenocarcinoma cell line growth inhibition [PI3K]
# Settings: for pIC50: curve of first compound; for viability, T/C: stronger effect = lower value
# In short: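 Combination activity was assessed by viability in multicellular tumor spheroids carrying HUVEC and MSC components. Agents were tested with PI3K inhibitors from a Cmax-based top dose (or 10 microM) downward in half-log increments.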
# [1] = second compound 0.00316 µM, first compound 0.0316 µM
# [2] = second compound 0.00316 µM, first compound 0.1 µM
# [3] = second compound 0.01 µM, first compound 0.0316 µM
# [4] = second compound 0.01 µM, first compound 0.1 µM
# [5] = second compound 0.0316 µM, first compound 0.0316 µM
# [6] = second compound 0.0316 µM, first compound 0.1 µM
# [7] = second compound 0.1 µM, first compound 0.0316 µM
# [8] = second compound 0.1 µM, first compound 0.1 µM
# [9] = second compound 0.316 µM, first compound 0.0316 µM
# [10] = second compound 0.316 µM, first compound 0.1 µM
# [11] = second compound 1 µM, first compound 0.0316 µM
# [12] = second compound 1 µM, first compound 0.1 µM
# [13] = second compound 0.00316 µM, first compound 0.316 µM
# [14] = second compound 0.00316 µM, first compound 1 µM
# [15] = second compound 0.00316 µM, first compound 3.16 µM
# [16] = second compound 0.00316 µM, first compound 10 µM
# [17] = second compound 0.01 µM, first compound 0.316 µM
# [18] = second compound 0.01 µM, first compound 1 µM
# [19] = second compound 0.01 µM, first compound 3.16 µM
# [20] = second compound 0.01 µM, first compound 10 µM
# [21] = second compound 0.0316 µM, first compound 0.316 µM
# [22] = second compound 0.0316 µM, first compound 1 µM
# [23] = second compound 0.0316 µM, first compound 3.16 µM
# [24] = second compound 0.0316 µM, first compound 10 µM
# [25] = second compound 0.1 µM, first compound 0.316 µM
# [26] = second compound 0.1 µM, first compound 1 µM
# [27] = second compound 0.1 µM, first compound 3.16 µM
# [28] = second compound 0.1 µM, first compound 10 µM
# [29] = second compound 0.316 µM, first compound 0.316 µM
# [30] = second compound 0.316 µM, first compound 1 µM
# [31] = second compound 0.316 µM, first compound 3.16 µM
# [32] = second compound 0.316 µM, first compound 10 µM
# [33] = second compound 1 µM, first compound 0.316 µM
# [34] = second compound 1 µM, first compound 1 µM
# [35] = second compound 1 µM, first compound 3.16 µM
# [36] = second compound 1 µM, first compound 10 µM
# 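Also: viability read 7 days after compound addition.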
structure (smiles),measurement,setting,value
Cn1ncnc1[C@H]1c2n[nH]c(=O)c3cc(F)cc(c23)N[C@@H]1c1ccc(F)cc1 + COc1c(OCCCN2CCOCC2)ccc2c3n(c(=NC(=O)c4cnc(N)nc4)nc12)CCN3,pIC50,second compound 0.00316 µM,< 7.00
same,pIC50,second compound 0.01 µM,< 7.00
same,pIC50,second compound 0.0316 µM,< 7.00
same,pIC50,second compound 0.1 µM,< 7.00
same,pIC50,second compound 0.316 µM,8.95
same,pIC50,second compound 1 µM,> 9.50
same,"viability, T/C","second compound 0.00316 µM, first compound 0.000316 µM",103%
same,"viability, T/C","second compound 0.00316 µM, first compound 0.001 µM",107%
same,"viability, T/C","second compound 0.00316 µM, first compound 0.00316 µM",107%
same,"viability, T/C","second compound 0.00316 µM, first compound 0.01 µM",98.7%
same,"viability, T/C",[1],106%
same,"viability, T/C",[2],93.9%
same,"viability, T/C","second compound 0.01 µM, first compound 0.000316 µM",103%
same,"viability, T/C","second compound 0.01 µM, first compound 0.001 µM",97.9%
same,"viability, T/C","second compound 0.01 µM, first compound 0.00316 µM",94.2%
same,"viability, T/C","second compound 0.01 µM, first compound 0.01 µM",89.2%
same,"viability, T/C",[3],93%
same,"viability, T/C",[4],91.3%
same,"viability, T/C","second compound 0.0316 µM, first compound 0.000316 µM",85.2%
same,"viability, T/C","second compound 0.0316 µM, first compound 0.001 µM",88.9%
same,"viability, T/C","second compound 0.0316 µM, first compound 0.00316 µM",82.1%
same,"viability, T/C","second compound 0.0316 µM, first compound 0.01 µM",83%
same,"viability, T/C",[5],81.8%
same,"viability, T/C",[6],79%
same,"viability, T/C","second compound 0.1 µM, first compound 0.000316 µM",70.2%
same,"viability, T/C","second compound 0.1 µM, first compound 0.001 µM",68.5%
same,"viability, T/C","second compound 0.1 µM, first compound 0.00316 µM",70.7%
same,"viability, T/C","second compound 0.1 µM, first compound 0.01 µM",66%
same,"viability, T/C",[7],69%
same,"viability, T/C",[8],61.3%
same,"viability, T/C","second compound 0.316 µM, first compound 0.000316 µM",54.3%
same,"viability, T/C","second compound 0.316 µM, first compound 0.001 µM",52.5%
same,"viability, T/C","second compound 0.316 µM, first compound 0.00316 µM",46.1%
same,"viability, T/C","second compound 0.316 µM, first compound 0.01 µM",43.4%
same,"viability, T/C",[9],46.4%
same,"viability, T/C",[10],43.4%
same,"viability, T/C","second compound 1 µM, first compound 0.000316 µM",33.3%
same,"viability, T/C","second compound 1 µM, first compound 0.001 µM",34.1%
same,"viability, T/C","second compound 1 µM, first compound 0.00316 µM",30.9%
same,"viability, T/C","second compound 1 µM, first compound 0.01 µM",34.4%
same,"viability, T/C",[11],36.6%
same,"viability, T/C",[12],30.3%
Cn1ncc(Cl)c1-c1cc(C(=O)NC(CN)Cc2cccc(F)c2)sc1Cl (stereo unspecified) + CC(Nc1ccc2c(c1)OCCn1cc(N3C(=O)OCC3C(F)F)nc1-2)C(N)=O,pIC50,second compound 0.00316 µM,5.29
same,pIC50,second compound 0.01 µM,5.28
same,pIC50,second compound 0.0316 µM,5.30
same,pIC50,second compound 0.1 µM,5.41
same,pIC50,second compound 0.316 µM,5.39
same,pIC50,second compound 1 µM,5.45
same,"viability, T/C",[1],94.7%
same,"viability, T/C",[2],102%
same,"viability, T/C",[13],85.5%
same,"viability, T/C",[14],88.3%
same,"viability, T/C",[15],71.1%
same,"viability, T/C",[16],22.8%
same,"viability, T/C",[3],98.3%
same,"viability, T/C",[4],90.7%
same,"viability, T/C",[17],91%
same,"viability, T/C",[18],79.2%
same,"viability, T/C",[19],70.9%
same,"viability, T/C",[20],27.6%
same,"viability, T/C",[5],103%
same,"viability, T/C",[6],89.2%
same,"viability, T/C",[21],94.8%
same,"viability, T/C",[22],86.3%
same,"viability, T/C",[23],66.1%
same,"viability, T/C",[24],25.9%
same,"viability, T/C",[7],110%
same,"viability, T/C",[8],92.6%
same,"viability, T/C",[25],92.5%
same,"viability, T/C",[26],75.1%
same,"viability, T/C",[27],61.1%
same,"viability, T/C",[28],20.3%
same,"viability, T/C",[9],80.8%
same,"viability, T/C",[10],94.4%
same,"viability, T/C",[29],76.4%
same,"viability, T/C",[30],73.2%
same,"viability, T/C",[31],60.1%
same,"viability, T/C",[32],20.9%
same,"viability, T/C",[11],82%
same,"viability, T/C",[12],70.7%
same,"viability, T/C",[33],80.7%
same,"viability, T/C",[34],63.8%
same,"viability, T/C",[35],54.7%
same,"viability, T/C",[36],21.4%
C=CC(=O)N1CCN(c2nc(=O)n(-c3c(C)ccnc3C(C)C)c3nc(-c4c(O)cccc4F)c(F)cc23)C(C)C1 (stereo unspecified) + COc1c(OCCCN2CCOCC2)ccc2c3n(c(=NC(=O)c4cnc(N)nc4)nc12)CCN3,pIC50,second compound 0.00316 µM,< 5.00
same,pIC50,second compound 0.01 µM,< 5.00
same,pIC50,second compound 0.0316 µM,< 5.00
same,pIC50,second compound 0.1 µM,< 5.00
same,pIC50,second compound 0.316 µM,> 7.50
same,pIC50,second compound 1 µM,> 7.50
same,"viability, T/C",[1],107%
same,"viability, T/C",[2],107%
same,"viability, T/C",[13],101%
same,"viability, T/C",[14],95.3%
same,"viability, T/C",[15],103%
same,"viability, T/C",[16],101%
same,"viability, T/C",[3],102%
same,"viability, T/C",[4],106%
same,"viability, T/C",[17],91.4%
same,"viability, T/C",[18],99.4%
same,"viability, T/C",[19],103%
same,"viability, T/C",[20],81.1%
same,"viability, T/C",[5],95.5%
same,"viability, T/C",[6],98.3%
same,"viability, T/C",[21],90.4%
same,"viability, T/C",[22],85.1%
same,"viability, T/C",[23],86.5%
same,"viability, T/C",[24],79.1%
same,"viability, T/C",[7],71.2%
same,"viability, T/C",[8],68.6%
same,"viability, T/C",[25],70.5%
same,"viability, T/C",[26],73.7%
same,"viability, T/C",[27],71.4%
same,"viability, T/C",[28],62.5%
same,"viability, T/C",[9],49.5%
same,"viability, T/C",[10],44.1%
same,"viability, T/C",[29],47.6%
same,"viability, T/C",[30],51.5%
same,"viability, T/C",[31],52.3%
same,"viability, T/C",[32],46.6%
same,"viability, T/C",[11],35.1%
same,"viability, T/C",[12],29.1%
same,"viability, T/C",[33],35.1%
same,"viability, T/C",[34],35.3%
same,"viability, T/C",[35],36.5%
same,"viability, T/C",[36],32.5%
